This assay relates to P388 leukemia ip, CD2F1 mice, survival T/C. Kind of assay: NCI In Vivo Anticancer Drug Screen. Data for tumor model P388 Leukemia (intraperitoneal) in CD2F1 (CDF1) mice. Conditions: endpoint: median survival time, higher = longer survival. In outline:
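Mice carrying the transplanted tumor received test compound or vehicle. Survival was recorded in each group, and the value is the treated-group measurement divided by that of the vehicle-treated control group.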

Where [1] appears, read: dose: 100.0 mg/kg/injection, schedule: Q01DX009 (ip), vehicle: saline with Tween-80.
Where [2] appears, read: dose: 100.0 mg/kg/injection, schedule: Q04DX003 (ip), vehicle: saline.
Setting [3] is: dose: 200.0 mg/kg/injection, schedule: Q04DX003 (ip), vehicle: saline.
Where [4] appears, read: dose: 400.0 mg/kg/injection, schedule: Q04DX003 (ip), vehicle: saline.
[5] abbreviates: dose: 50.0 mg/kg/injection, schedule: Q01DX005 (ip), vehicle: saline with Tween-80.
Where [6] appears, read: dose: 100.0 mg/kg/injection, schedule: Q01DX005 (ip), vehicle: saline with Tween-80.
[7] abbreviates: dose: 200.0 mg/kg/injection, schedule: Q01DX005 (ip), vehicle: saline with Tween-80.
The mark [8] stands for this setting: dose: 60.0 mg/kg/injection, schedule: Q01DX005 (ip), vehicle: saline with Tween-80.
Setting [9] is: dose: 60.0 mg/kg/injection, schedule: Q01DX005 (ip), vehicle: saline.
Setting [10] is: dose: 120.0 mg/kg/injection, schedule: Q01DX005 (ip), vehicle: saline.
Setting [11] is: dose: 240.0 mg/kg/injection, schedule: Q01DX005 (ip), vehicle: saline.
The mark [12] stands for this setting: dose: 50.0 mg/kg/injection, schedule: Q01DX005 (ip), vehicle: Klucel (hydroxypropylcellulose) (HPC).
The mark [13] stands for this setting: dose: 100.0 mg/kg/injection, schedule: Q01DX005 (ip), vehicle: Klucel (hydroxypropylcellulose) (HPC).
Where [14] appears, read: dose: 200.0 mg/kg/injection, schedule: Q01DX005 (ip), vehicle: Klucel (hydroxypropylcellulose) (HPC).
The mark [15] stands for this setting: dose: 50.0 mg/kg/injection, schedule: Q01DX009 (ip), vehicle: saline with Tween-80.
Setting [16] is: dose: 200.0 mg/kg/injection, schedule: Q01DX009 (ip), vehicle: saline with Tween-80.

Each structure is given as a SMILES string. “And” between values parts separate entries of the source, which are not always exact repeats. Identical values can stand only once. Inconclusive results and toxic doses are left out.

Consider `CS(=O)(=O)O/C=C1/CCOC1=O`, for which the T/C is 107 % of control (dose: 3.13 mg/kg/injection, schedule: Q01DX009 (ip), vehicle: water); 104 % of control (dose: 6.25 mg/kg/injection, schedule: Q01DX009 (ip), vehicle: water); 102 % of control and 108 % of control (dose: 12.5 mg/kg/injection, schedule: Q01DX009 (ip), vehicle: water); 120 % of control (dose: 25.0 mg/kg/injection, schedule: Q01DX009 (ip), vehicle: water).
As to `CC1=CCC(C(C)C)C=C1` (configuration not stated), the T/C is, setting by setting: under setting [1], 100 % of control; under setting [2], 105 % of control; under setting [3], 100 % of control; under setting [4], 105 % of control.
With `CCOc1cccc(/C=N/NC(=O)C(N)Cc2ccc(O)cc2)c1O` (configuration not stated), the T/C runs as follows: under setting [5], 99 % of control; under setting [6], 99 % of control; under setting [7], 99 % of control.
With `Cc1c(N=Nc2c(S(=O)(=O)O)cc3cc(S(=O)(=O)O)c(N=Nc4c(C)n(C)n(-c5ccccc5)c4=O)c(O)c3c2O)c(=O)n(-c2ccccc2)n1C`, the T/C (dose: 60.0 mg/kg/injection, schedule: Q01DX005 (ip), vehicle: suspension in saline) was 101 % of control; the T/C (dose: 120.0 mg/kg/injection, schedule: Q01DX005 (ip), vehicle: suspension in saline) was 96 % of control; the T/C (dose: 240.0 mg/kg/injection, schedule: Q01DX005 (ip), vehicle: suspension in saline) is 110 % of control.
As for `Cc1ccc(/C=C2/C(=O)N(c3ccccc3)N=C2c2ccccc2)cc1`, the T/C runs as follows: (dose: 1.87 mg/kg/injection, schedule: Q01DX005 (ip), vehicle: saline with Tween-80) 110 % of control; (dose: 3.75 mg/kg/injection, schedule: Q01DX005 (ip), vehicle: saline with Tween-80) 113 % of control; (dose: 3.75 mg/kg/injection, schedule: Q01DX005 (ip), vehicle: saline) 95 % of control; (dose: 7.5 mg/kg/injection, schedule: Q01DX005 (ip), vehicle: saline with Tween-80) 113 % of control; (dose: 15.0 mg/kg/injection, schedule: Q01DX005 (ip), vehicle: saline with Tween-80) 110 % of control; (dose: 15.0 mg/kg/injection, schedule: Q01DX005 (ip), vehicle: saline) 100 % of control. The T/C reads like this: (dose: 30.0 mg/kg/injection, schedule: Q01DX005 (ip), vehicle: saline with Tween-80) 109 % of control; under setting [8], 108 % of control.
Consider `CN1C=C([N+](=O)[O-])C(N2CCOCC2)C1N1CCOCC1` (configuration not stated), for which the T/C is, setting by setting: (dose: 60.0 mg/kg/injection, schedule: Q01DX005 (ip), vehicle: Klucel (hydroxypropylcellulose) (HPC)) 96 % of control; (dose: 120.0 mg/kg/injection, schedule: Q01DX005 (ip), vehicle: Klucel (hydroxypropylcellulose) (HPC)) 114 % of control.
For the compound `O=C(O)CC[S-].[Ag+]`, the T/C under setting [2] was 100 % of control, the T/C under setting [3] is 100 % of control and the T/C under setting [4] is 95 % of control.
Take `c1ccc2c[s+]ccc2c1`: the T/C was 90 % of control (dose: 50.0 mg/kg/injection, schedule: Q01DX009 (ip), vehicle: suspension in saline) and 97 % of control (dose: 100.0 mg/kg/injection, schedule: Q01DX009 (ip), vehicle: suspension in saline).
Consider `CCN1CCc2nc(N)oc2CC1`, for which the T/C is 107 % of control (dose: 50.0 mg/kg/injection, schedule: Q01DX009 (ip), vehicle: saline); 110 % of control (dose: 100.0 mg/kg/injection, schedule: Q01DX009 (ip), vehicle: saline); 115 % of control (dose: 200.0 mg/kg/injection, schedule: Q01DX009 (ip), vehicle: saline).
In the case of `COc1cc(C(=O)CC2=NC3NN(c4ccccc4)C(=O)C3=C2CC(=O)c2ccc(O)c(OC)c2)ccc1O` (configuration not stated), the T/C by setting is: under setting [9], 100 % of control; under setting [10], 102 % of control; under setting [11], 98 % of control.
On to `CC(=O)C1(C)Nc2cccc3cccc(c23)N1`, for which the T/C is 100 % of control under setting [12], 96 % of control under setting [13] and 101 % of control under setting [14].
In the case of `C=CCNCCN1CCN(CCCN2c3ccccc3Sc3ccc(C(F)(F)F)cc32)CC1`, the T/C (dose: 25.0 mg/kg/injection, schedule: Q04DX003 (ip), vehicle: saline) is 91 % of control; the T/C (dose: 50.0 mg/kg/injection, schedule: Q04DX003 (ip), vehicle: saline) is 119 % of control and 97 % of control.
Turning to `O=C(Oc1ccccc1)C(Cc1ccccc1)NC(=O)C(F)(F)F` (configuration not stated), the T/C is 108 % of control under setting [15], 99 % of control under setting [1] and 103 % of control under setting [16].
`CC(=O)Oc1cccn2c(C(=O)C(=O)c3ccc4c(OC(C)=O)cccn34)ccc12`: the T/C was 92 % of control under setting [12], 86 % of control under setting [13] and 94 % of control under setting [14].
In the case of `CCOC(=O)c1cc2c(oc1=O)-c1cc(C)ccc1OC2C` (configuration not stated), the T/C is 104 % of control under setting [8]; 110 % of control (dose: 120.0 mg/kg/injection, schedule: Q01DX005 (ip), vehicle: saline with Tween-80); 105 % of control (dose: 240.0 mg/kg/injection, schedule: Q01DX005 (ip), vehicle: saline with Tween-80).
Turning to `O=C(c1ccccc1)N1OC2C=CC1C2` (configuration not stated), the T/C is, setting by setting: (dose: 12.5 mg/kg/injection, schedule: Q01DX009 (ip), vehicle: saline with Tween-80) 100 % of control; (dose: 25.0 mg/kg/injection, schedule: Q01DX009 (ip), vehicle: saline with Tween-80) 89 % of control; under setting [15], 100 % of control and 103 % of control.
On to `CCCN1c2c3c(O)c4c(O)c(C)c5c(c4c2O)C(=O)C(C)(O/C=C/C(OC)C(C)C(OC(C)=O)C(C)C(O)C(C)C(O)C(C)/C=C/C=C(/C)C(=O)N3C1C)O5` (configuration not stated), for which the T/C is 96 % of control (dose: 25.0 mg/kg/injection, schedule: Q01DX009 (ip), vehicle: Klucel (hydroxypropylcellulose) (HPC)); 101 % of control (dose: 50.0 mg/kg/injection, schedule: Q01DX009 (ip), vehicle: Klucel (hydroxypropylcellulose) (HPC)); 93 % of control (dose: 100.0 mg/kg/injection, schedule: Q01DX009 (ip), vehicle: Klucel (hydroxypropylcellulose) (HPC)); 90 % of control (dose: 200.0 mg/kg/injection, schedule: Q01DX009 (ip), vehicle: Klucel (hydroxypropylcellulose) (HPC)).
For the compound `CC(C)C/C=C/CCCCCCCCCC(=O)NCC(=O)NC1C(C)OC(Nc2ncnc3nc[nH]c23)C(O)C1O` (configuration not stated), the T/C by setting is: (dose: 0.5 mg/kg/injection, schedule: Q01DX009 (ip), vehicle: water) 112 % of control and 123 % of control (2×); (dose: 1.0 mg/kg/injection, schedule: Q01DX009 (ip), vehicle: water) 101 % of control and 103 % of control and 121 % of control; (dose: 2.0 mg/kg/injection, schedule: Q01DX009 (ip), vehicle: water) 155 % of control; (dose: 4.0 mg/kg/injection, schedule: Q01DX009 (ip), vehicle: water) 123 % of control and 87 % of control; (dose: 8.0 mg/kg/injection, schedule: Q01DX009 (ip), vehicle: water) 156 % of control and 178 % of control.
As to `OCC1COC(c2ccccc2)=N1` (configuration not stated), the T/C runs as follows: under setting [12], 100 % of control; under setting [13], 99 % of control; under setting [14], 100 % of control.
As to `Nc1nnc2nc(C(C(=O)c3cccc(O)c3)c3nc4nnc(N)n4[nH]c3=O)c(=O)[nH]n12`, the T/C is, setting by setting: under setting [9], 97 % of control; under setting [10], 106 % of control; under setting [11], 97 % of control.
For the compound `C=C1COC(=O)C12CC1CCCC(C)C1(C)C2` (configuration not stated), the T/C (dose: 4.0 mg/kg/injection, schedule: Q01DX009 (ip), vehicle: Klucel (hydroxypropylcellulose) (HPC)) was 93 % of control; the T/C (dose: 8.0 mg/kg/injection, schedule: Q01DX009 (ip), vehicle: Klucel (hydroxypropylcellulose) (HPC)) was 96 % of control; the T/C (dose: 16.0 mg/kg/injection, schedule: Q01DX009 (ip), vehicle: Klucel (hydroxypropylcellulose) (HPC)) is 94 % of control; the T/C (dose: 32.0 mg/kg/injection, schedule: Q01DX009 (ip), vehicle: Klucel (hydroxypropylcellulose) (HPC)) is 102 % of control.
On to `CC(CN=C(CC(=O)c1ccccc1)c1ccccc1)N=C(CC(=O)c1ccccc1)c1ccccc1` (configuration not stated), for which the T/C runs as follows: under setting [15], 104 % of control; under setting [1], 103 % of control; under setting [16], 97 % of control.
On to `O=C1CCCCCCCC(=O)Nc2ccc3nc4ccccc4c(c3c2)SCCCCCCCCCCCCSc2c3ccccc3nc3ccc(cc23)N1`, for which the T/C reads like this: under setting [5], 105 % of control; under setting [6], 107 % of control; under setting [7], 104 % of control.

The values above are taken from PubChem BioAssay AID330 (DTP/NCI, 2004).
